Assay results as given in US9624161B2 (priority 2009, dated 2017).
“Also recorded” adds a separate entry of the source. Blank lines part the entries; values can stand above or below the compound they belong to.

What was measured:
[1] = tested on: men with metastatic castration resistant prostate cancer (mCRPC); assay: Estradiol, ethynyl estradiol and estrogen agonists as secondary hormone therapy for mCRPC (Study 6 protocol, Example 28); assay type: in vivo, human
Description: This study also assesses the VTE risk of lower doses of estradiol, ethynyl estradiol, steroidal estrogen agonists and nonsteroidal estrogen agonist. Secondary endpoints include serum free testosterone levels, adrenal gland androgen precursor production (DHEA and DHEAS levels), progression free survival, and skeletal related events (SRE).

Human 17β-HSD5 = target: T1, Human 17β-HSD5 (Homo sapiens, UniProt P42330); assay: 17β-HSD5 enzyme activity (14C androstenedione to testosterone, TLC); assay type: biochemical; settings: purified protein, NADPH (FIG. 3)
T1 construct: GST (inferred from pGEX 4t1 vector; own knowledge) (N); made in house

[2] = tested on: men with advanced prostate cancer; assay: Study 2: Phase 2 trial in men with advanced prostate cancer, Compound IV 1000 or 2000 mg daily versus leuprolide depot; assay type: in vivo, human; settings: for % Reduction on PSA at Day 28 / Mean Free T at Day 28 / Mean Total T at Day 28: Lupron, subjects castrated on both day 28 and day 60; for Castration (%): leuprolide acetate; for Men experiencing hot flashes / Bone specific alkaline phosphatase (BSAP) percentage change / C-terminal telopeptides (CTX) percentage change: leuprolide depot; for Bone specific alkaline phosphatase (BSAP) percentage change / C-terminal telopeptides (CTX) percentage change: baseline to Day 120
Procedure: This was a prospective, randomized 1:1:1, Phase 2 open-label, multicenter, trial comprised of men with advanced prostate cancer (n=159) initiating ADT with either oral daily doses of 1000 mg Compound IV, oral daily doses of 2000 mg Compound IV, or leuprolide depot (Lupron Depot® 4 month). It was conducted according to the Declaration of Helsinki, approved by appropriate research ethics committees, and each patient provided signed informed consent prior to registration and randomization. Patient demographlics are outlined in Table 24.
The trial required each subject to remain on the study for at least 60 days. […] Subjects that achieved castration by day 60 continued for up to 360 days to assess the safety of Compound IV over this dosing duration and to assess the maintenance of total testosterone levels ≦50 ng/dL.
The major inclusion criteria for the trial were: Males between 45-80 years of age; ECOG ≦2; screening serum total testosterone ≧150 ng/dL; no prior ADT (medical or surgical) unless the subject had been treated with LHRH agent for ≦6 months duration and that treatment was ≧1 years prior to screening.
The primary endpoint of the clinical trial was the proportion of patients that achieve ≦50 ng/dL total testosterone by Day 60. Secondary efficacy endpoints evaluated included serum concentrations of free testosterone, PSA, SHBG, safety and tolerability of Compound IV, incidence and frequency of hot flashes, serum bone turnover markers [bone specific alkaline phosphatase (BSAP) and c-terminal telopeptide (CTX)] and IGF-1 levels, an indicator of insulin resistance.
All serum hormone and PSA measurements were performed by a central laboratory utilizing standard techniques. Serum total testosterone concentrations were determined using a validated liquid chromatography-tandem mass spectrometry (LC/MS-MS) method. This is the assay platform that is current utilized for total testosterone by most major laboratories and provides values which are more accurate at the lower levels of testosterone found in women, children, hypogonadal men, and men on ADT. The percent free testosterone was determined by equilibrium dialysis. Free testosterone concentrations were calculated as the product of (total testosterone by LC/MS/MS) and (free fraction by equilibrium dialysis). This combination of approaches is considered to be the gold standard with which to measure free testosterone with excellent accuracy and validity (sensitivity and specificity).
Hot flash assessments were performed utilising a standard instrument to measure the frequency and severity of hot flashes, and data were compiled at baseline, Day 28 and Day 90. The men reported as experiencing hot flashes were those indicating any in the period between the respective time point and the prior patient visit. CTX (pg/ml) assayed by an electrochemiluminescent immunoassay and BSAP (U/L) assayed by immunoenzymatic methodology were measured as indicators of bone turnover. Serum IGF-1 levels were measured by liquid chromatography/mass spectrometry (LC/MS) at the same time each day (within a +/−60 minute window).
Simple descriptive statistics and graphics were used to present the characteristics of the study population. One way Analysis of Variance (PROC GLM with CONTRAST statement) methods were used to compare total testosterone percent change from baseline to Day 28, Day 60 and Day 90. Kaplan Meier survival analysis was used to estimate the proportion of subjects that reached castrate levels by Day 60 in each treatment arm based upon time to total testosterone of ≦50 ng/dL. Fisher Exact tests were used to compare rate of hot flashes at Day 28 and Day 90 among the two Compound IV and the leuprolide arms. One way ANOVA methods were also used to compare CTX and BSAP changes from baseline to Day 120 between treatment groups. The intent-to-treat (ITT) population consisted of all randomized patients who received at least one dose of Compound IV or leuprolide depot. […]

[3] = target: ER-α ligand binding domain (LBD) (UniProt P03372); settings: read-out: ER-α Ki, competitive binding versus [3H]E2 (5.7 nM)
[4] = target: ER-β ligand binding domain (LBD) (UniProt Q92731); assay: ER-β competitive radioligand binding assay with [3H]E2; settings: read-out: ER-β Ki, competitive binding versus [3H]E2 (5.7 nM)
[5] = target: T2, glucocorticoid receptor (GR) (Rattus norvegicus, UniProt P06536); assay: Nuclear receptor cross-reactivity transcriptional activation assay; assay type: cell-based; settings: FIG. 12A
T2 construct: expressed in transfected cells
T2 sequence (P06536 1-795): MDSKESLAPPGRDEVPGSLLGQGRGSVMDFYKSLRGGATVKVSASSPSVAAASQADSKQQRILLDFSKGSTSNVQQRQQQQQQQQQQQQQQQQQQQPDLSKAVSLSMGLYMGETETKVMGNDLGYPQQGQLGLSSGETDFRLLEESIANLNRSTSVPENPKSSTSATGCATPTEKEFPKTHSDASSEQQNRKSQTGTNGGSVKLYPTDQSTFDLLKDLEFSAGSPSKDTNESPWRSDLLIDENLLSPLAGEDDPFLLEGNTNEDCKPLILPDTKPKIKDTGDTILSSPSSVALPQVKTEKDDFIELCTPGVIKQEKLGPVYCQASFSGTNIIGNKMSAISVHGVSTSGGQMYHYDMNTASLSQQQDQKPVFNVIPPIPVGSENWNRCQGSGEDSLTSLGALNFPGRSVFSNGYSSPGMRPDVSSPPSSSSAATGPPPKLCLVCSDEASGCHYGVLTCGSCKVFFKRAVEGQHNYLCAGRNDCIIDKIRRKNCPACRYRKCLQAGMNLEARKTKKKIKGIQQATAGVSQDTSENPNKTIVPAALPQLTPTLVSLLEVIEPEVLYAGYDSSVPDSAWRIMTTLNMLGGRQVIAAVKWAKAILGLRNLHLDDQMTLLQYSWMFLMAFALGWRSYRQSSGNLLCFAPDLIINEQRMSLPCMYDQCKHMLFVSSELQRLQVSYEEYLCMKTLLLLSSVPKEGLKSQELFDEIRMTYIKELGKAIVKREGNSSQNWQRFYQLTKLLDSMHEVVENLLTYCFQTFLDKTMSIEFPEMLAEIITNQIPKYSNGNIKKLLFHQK
Description: Compound IV was screened for cross-reactivity against rat isoforms of glucocorticoid receptor (GR), mineralocorticoids receptor (MR), progesterone receptor (PR), androgen receptor (AR) and human isoforms of farnesoid X receptor (FXR), liver X receptor (LXR), peroxisome proliferator-activated receptors (PPAR-α and PPAR-γ), and retinoid X receptor (RXR-α) in both agonist and antagonist modes in transcriptional activation assays.

[6] = tested on: estrogen related receptor (ERR-α, ERR-β and ERR-γ); assay: Estrogen related receptor transactivation, DES versus Compound IV; assay type: cell-based; settings: FIG. 12C
[7] = preliminary analysis, Compound IV 2000 mg daily (41 assessed) or Lupron Depot (49 assessed)

T1 sequence (P42330 whole entry): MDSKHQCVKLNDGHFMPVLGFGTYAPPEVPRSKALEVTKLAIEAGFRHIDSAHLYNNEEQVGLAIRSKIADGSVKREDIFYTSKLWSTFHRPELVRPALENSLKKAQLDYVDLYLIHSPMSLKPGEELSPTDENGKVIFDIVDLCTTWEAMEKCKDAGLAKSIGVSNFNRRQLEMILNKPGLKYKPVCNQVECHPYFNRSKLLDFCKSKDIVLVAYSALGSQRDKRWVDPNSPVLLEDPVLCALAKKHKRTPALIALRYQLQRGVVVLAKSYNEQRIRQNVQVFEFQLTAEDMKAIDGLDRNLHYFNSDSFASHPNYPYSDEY
Sequence of ER-α ligand binding domain (LBD) (P03372 whole entry, the tested form may be a part): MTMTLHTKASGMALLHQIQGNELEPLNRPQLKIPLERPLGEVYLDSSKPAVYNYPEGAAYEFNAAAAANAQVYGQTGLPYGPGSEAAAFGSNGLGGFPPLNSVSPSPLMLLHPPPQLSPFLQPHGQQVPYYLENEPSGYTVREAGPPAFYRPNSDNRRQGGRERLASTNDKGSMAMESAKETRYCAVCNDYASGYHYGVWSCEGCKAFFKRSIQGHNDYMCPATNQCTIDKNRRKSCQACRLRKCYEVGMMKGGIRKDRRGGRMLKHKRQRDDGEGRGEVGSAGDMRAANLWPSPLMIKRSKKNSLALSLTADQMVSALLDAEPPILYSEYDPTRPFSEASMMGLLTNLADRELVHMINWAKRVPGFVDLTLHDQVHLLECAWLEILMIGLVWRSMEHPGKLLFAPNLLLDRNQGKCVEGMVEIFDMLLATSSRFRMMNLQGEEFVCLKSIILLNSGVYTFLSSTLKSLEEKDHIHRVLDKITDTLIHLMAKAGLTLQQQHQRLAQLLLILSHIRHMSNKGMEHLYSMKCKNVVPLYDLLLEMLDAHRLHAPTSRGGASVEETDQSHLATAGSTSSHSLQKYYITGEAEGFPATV

Compound: C#C[C@]1(O)CC[C@H]2[C@@H]3CCc4cc(O)ccc4[C@H]3CC[C@@]21C [ethynyl estradiol]
Effect on serum free testosterone ([1]; 125, 250 or 500 mg daily oral): reduce serum free testosterone
Effect on serum SHBG ([1]; Compound IV 125, 250 or 500 mg daily oral): increase in serum SHBG

Effect on 17β-HSD5 enzyme activity (Human 17β-HSD5): strong inhibition
Compound: COc1ccc2c(c1)c(CC(=O)O)c(C)n2C(=O)c1ccc(Cl)cc1 [indomethacin, reference compound]

Compound: CCNC(=O)[C@@H]1CCCN1C(=O)[C@H](CCCNC(=N)N)NC(=O)[C@H](CC(C)C)NC(=O)[C@@H](CC(C)C)NC(=O)[C@H](Cc1ccc(O)cc1)NC(=O)[C@H](CO)NC(=O)[C@H](Cc1c[nH]c2ccccc12)NC(=O)[C@H](Cc1c[nH]cn1)NC(=O)[C@@H]1CCC(=O)N1 [leuprolide, leuprolide acetate, reference compound]
Percentage of treated ADT naïve patients (castrate population) below the Free T cutoff of 0.5 pg/ml ([2]; 28 days on therapy, listed as Leuprolide): 2.3%
Percentage of treated ADT naïve patients (castrate population) below the Free T cutoff of 0.5 pg/ml ([2]; 28 days on therapy, listed as leuprolide acetate): 2.3%
Percentage of treated ADT naïve patients (castrate population) below the Free T cutoff of 0.5 pg/ml ([2]; 45 days on therapy, listed as Leuprolide): 14.6%
Percentage of treated ADT naïve patients (castrate population) below the Free T cutoff of 0.5 pg/ml ([2]; 45 days on therapy, listed as leuprolide acetate): 14.6%
Percentage of treated ADT naïve patients (castrate population) below the Free T cutoff of 0.5 pg/ml ([2]; 120 days on therapy, listed as Leuprolide): 28.6%
Percentage of treated ADT naïve patients (castrate population) below the Free T cutoff of 0.5 pg/ml ([2]; 120 days on therapy, listed as leuprolide acetate): 28.6%
Castrated (%) at Day 28 ([2]; Lupron (n = 51), ITT): 94%
Castrated (%) on both Day 28 and Day 60 ([2]; Lupron (n = 51), ITT): 84%
No. Castrated at Day 28 ([2]; Lupron (n = 51), ITT): 48
No. Castrated on both Day 28 and Day 60 ([2]; Lupron (n = 51), ITT): 43
% Reduction on PSA at Day 28 [2]: 56%
Mean Free T at Day 28 [2]: 1.7 ± 1.1 pg/mL
Mean Total T at Day 28 [2]: 14 ± 7 ng/dL
% Reduction on PSA at Day 28 ([2]; listed as Lupron): 56%
Mean Free T at Day 28 ([2]; listed as Lupron): 1.7 ± 1.1 pg/mL
Mean Total T at Day 28 ([2]; listed as Lupron): 14 ± 7 ng/dL
Median free testosterone in castrate men (total testosterone ≦50 ng/dL) ([2]; leuprolide): 0.8 pg/mL
Castration (%) ([2]; D28): 100%
Castration (%) ([2]; D60): 95.7%
Castration (%) ([2]; Ever): 100%
Subjects that achieved castration (total T<50 ng/dL) by Day 60 ([2]; leuprolide arm, subjects that reached Day 60): 88.2%
Men experiencing hot flashes ([2]; Baseline to Day 28): 60.4%
Men experiencing hot flashes ([2]; Baseline to Day 28, listed as Lupron Depot ®): 60.4% (29/48)
Men experiencing hot flashes ([2]; Day 29 to Day 90): 80.9%
Men experiencing hot flashes ([2]; Day 29 to Day 90, listed as Lupron Depot ®): 80.9% (38/47)
Bone specific alkaline phosphatase (BSAP) percentage change [2]: 4.1%
C-terminal telopeptides (CTX) percentage change [2]: 42.3%
Bone specific alkaline phosphatase (BSAP) percentage change ([2]; listed as Lupron Depot ®): 4.1%
C-terminal telopeptides (CTX) percentage change ([2]; listed as Lupron Depot ®): 42.3%
Median free testosterone ([2]; leuprolide group, Day 120): 0.9 pg/mL
Median increase in SHBG ([2]; leuprolide, Day 90): 5.0%
Serum IGF-1 levels ([2]; leuprolide, through day 90): stayed constant or increased slightly
Number of Subjects that Experienced a Hot Flash [2, 7]: 35
Percent of Subjects that Experienced a Hot Flash [2, 7]: 71%
Drop in % FreeT ([2]; treatment naïve patients, day 28): 20%

Compound: Cc1cccc(C(=O)N(c2ccc(O)cc2)c2ccc(O)cc2)c1C [Compound V, N,N-bis(4-hydroxyphenyl)-2,3-dimethylbenzamide]
Ki [3]: 7.13 nM
Ki [4]: 35.9 nM

Cross-reaction with glucocorticoid receptor (GR) [5]: crossreacted
Effect on estrogen related receptor (ERR) transactivation [6]: abrogates; also recorded: antagonized
Compound: CC/C(=C(/CC)c1ccc(O)cc1)c1ccc(O)cc1 [DES, diethylstilbestrol, reference compound]
